{
  "source": "paper PMC8725427",
  "about": "(Cellulose (London, England), 2022)",
  "origin": "cited, not measured here",
  "key": {"[1]": {"tested_on": "SARS-CoV-1", "settings": "read-out: EC50 for SARS-CoV-1 replication inhibition"}, "[2]": {"tested_on": "influenza A virus (IAV)", "settings": "ref Chen et al. [2010]"}, "[3]": {"tested_on": "influenza A virus", "settings": "read-out: IC50 for influenza A virus; ref Richart et al. [2018]"}, "[4]": {"tested_on": "vesicular stomatitis virus", "settings": "read-out: IC50 for vesicular stomatitis virus"}, "[5]": {"tested_on": "transmissible gastroenteritis virus", "settings": "read-out: IC50 for transmissible gastroenteritis virus; ref Li et al. [2020]"}, "[6]": {"tested_on": "chikungunya virus", "settings": "read-out: IC50 for chikungunya virus; ref von Rhein et al. [2016]"}, "[7]": {"target": "HIV-1 integrase", "settings": "read-out: IC50 to inhibit the HIV-1 integrase; ref Mazumder et al. [1995]"}, "[8]": {"settings": "carboxymethyl cellulose 2% (w/v) in PBS medium; ref Gunathilake et al. [2020b]"}, "[9]": {"tested_on": "healthy organs", "settings": "doses as high as 8 g/day; ref Almosa et al. [2020]"}, "[10]": {"settings": "in vitro, over a period concerned; ref Vedula et al. ([2016])"}, "[11]": {"settings": "from nanoliposomal carrier, simulated lung fluid; ref Vartak et al. ([2021])"}},
  "data": [
    {"smiles": "COc1cc(/C=C/C(=O)CC(=O)/C=C/c2ccc(O)c(OC)c2)ccc1O", "note": "[curcumin]", "values": [
      {"measurement": "EC50", "setting": "[1]", "result": "> 10", "unit": "µM"},
      {"measurement": "Effective dose against influenza A virus (IAV)", "setting": "[2]", "result": "~ 10 µM"},
      {"measurement": "IC50", "setting": "[3]", "result": "~0.2", "unit": "µM"},
      {"measurement": "IC50", "setting": "[4]", "result": 4.5, "unit": "µM"},
      {"measurement": "IC50", "setting": "[5]", "result": 8.6, "unit": "µM"},
      {"measurement": "IC50", "setting": "[6]", "result": 10.8, "unit": "µM"},
      {"measurement": "IC50", "setting": "[7]", "result": 40, "unit": "µM"},
      {"measurement": "Curcumin solubility in carboxymethyl cellulose medium", "setting": "[8]", "result": "0.147 ± 0.00566", "unit": "mg/mL"},
      {"measurement": "Lethal effect on healthy organs", "setting": "[9]", "result": "no lethal effect"}
    ]},
    {"smiles": "Nc1nc2c(ncn2COCCO)c(=O)[nH]1", "note": "[ACV, acyclovir]", "values": [
      {"measurement": "Percentage of drug release", "setting": "[10]", "result": "~5", "unit": "%"}
    ]},
    {"smiles": "CCC(CC)COC(=O)[C@H](C)N[P@](=O)(OC[C@H]1O[C@@](C#N)(c2ccc3c(N)ncnn23)[C@H](O)[C@@H]1O)Oc1ccccc1", "note": "[Remdesivir, remdesivir]", "values": [
      {"measurement": "Time to complete drug release", "setting": "[11]", "result": "≤ 50", "unit": "h"}
    ]}
  ]
}
